Calls of active or inactive are those of the source. The calls are words filed in the database; no cut-off is given here.
Assays:
[1] = target: Histone deacetylase 2 (Homo sapiens, UniProt Q92769); test: Inhibition of recombinant human C-terminal His-tagged HDAC2 (1 to end residues) expressed in sf9 insect cells using Boc-Lys(Ac)-AMC as substrate incubated for 60 mins by fluorescence assay
[2] = tested on: HCT-116; test: Antiproliferative activity against human HCT-116 cells assessed as reduction in cell viability after 72 hrs by MTT assay; format: functional, cell-based; details: HCT-116, 72 h
[3] = tested on: MCF7; test: cells; details: Homo sapiens, MCF7, 72 h
Description: Antiproliferative activity against human MCF7 cells assessed as reduction in cell viability after 72 hrs by MTT assay

[4] = target: T1, Histone deacetylase 8 (Homo sapiens, UniProt Q9BY41); test: Inhibition of recombinant human full length C-terminal His-tagged HDAC8 expressed in sf9 insect cells using Boc-Lys(TFA)-AM as substrate incubated for 60 mins by fluorescence assay
T1 sequence (Q9BY41 whole entry): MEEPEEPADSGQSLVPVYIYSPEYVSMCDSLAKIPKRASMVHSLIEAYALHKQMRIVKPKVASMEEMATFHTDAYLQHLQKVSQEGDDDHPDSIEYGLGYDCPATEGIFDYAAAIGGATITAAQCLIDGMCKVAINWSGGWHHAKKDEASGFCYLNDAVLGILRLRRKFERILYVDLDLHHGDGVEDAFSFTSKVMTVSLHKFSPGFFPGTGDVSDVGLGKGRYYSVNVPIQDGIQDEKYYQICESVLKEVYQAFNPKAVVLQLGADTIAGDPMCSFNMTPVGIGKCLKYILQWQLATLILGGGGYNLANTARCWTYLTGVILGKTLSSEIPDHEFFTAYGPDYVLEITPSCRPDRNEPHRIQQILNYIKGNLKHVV

[5] = tested on: HeLa; test: cells; format: functional, cell-based; details: Homo sapiens, 72 h
Description: Antiproliferative activity against human HeLa cells assessed as reduction in cell viability after 72 hrs by MTT assay

[6] = target: Histone deacetylase 1 (Homo sapiens, UniProt Q13547); test: Inhibition of recombinant human C-terminal His/FLAG-tagged HDAC1 (1 to end residues) expressed in sf9 insect cells using Boc-Lys(Ac)-AMC as substrate incubated for 60 mins by fluorescence assay
Histone deacetylase 1, sequence (Q13547 whole entry): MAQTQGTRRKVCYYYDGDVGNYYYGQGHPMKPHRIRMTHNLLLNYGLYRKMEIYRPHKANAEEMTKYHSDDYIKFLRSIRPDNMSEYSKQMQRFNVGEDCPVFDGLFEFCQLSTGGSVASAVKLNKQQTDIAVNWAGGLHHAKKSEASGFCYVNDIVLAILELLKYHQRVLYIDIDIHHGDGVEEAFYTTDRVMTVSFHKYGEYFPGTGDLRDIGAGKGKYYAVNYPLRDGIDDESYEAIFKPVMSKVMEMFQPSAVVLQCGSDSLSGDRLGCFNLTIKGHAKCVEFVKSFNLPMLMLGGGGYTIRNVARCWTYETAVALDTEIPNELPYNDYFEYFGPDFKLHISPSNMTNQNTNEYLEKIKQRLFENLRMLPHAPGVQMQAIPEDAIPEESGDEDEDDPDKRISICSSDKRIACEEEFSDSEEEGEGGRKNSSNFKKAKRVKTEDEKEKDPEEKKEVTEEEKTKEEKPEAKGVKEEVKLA

[7] = tested on: HCT-116; test: Induction of apoptosis in human HCT-116 cells assessed as necrotic cells at 3 uM after 24 hrs by Annexin V-FITC/PI staining based flow cytometric analysis (reference value: 0.51%); format: functional
[8] = tested on: HCT-116; test: Induction of cell cycle arrest in human HCT116 cells assessed as cell accumulation at G0/G1 phase at 3 uM after 24 hrs by Rnase/PI staining based flow cytometric analysis (reference value: 48.4%); format: functional
[9] = tested on: HCT-116; test: Induction of cell cycle arrest in human HCT116 cells assessed as cell accumulation at S phase at 3 uM after 24 hrs by Rnase/PI staining based flow cytometric analysis (reference value: 25.2%); format: functional
[10] = tested on: HCT-116; test: Induction of apoptosis in human HCT-116 cells assessed as viable cells at 1 uM after 24 hrs by Annexin V-FITC/PI staining based flow cytometric analysis (reference value: 90.34%); format: functional; details: for viability at 1 µM: Homo sapiens, HCT-116, read-out: Activity
[11] = tested on: HCT-116; test: Induction of apoptosis in human HCT-116 cells assessed as necrotic cells at 10 uM after 24 hrs by Annexin V-FITC/PI staining based flow cytometric analysis (reference value: 0.51%); format: functional
[12] = tested on: HCT-116; test: Induction of apoptosis in human HCT-116 cells assessed as late apoptotic cells at 3 uM after 24 hrs by Annexin V-FITC/PI staining based flow cytometric analysis (reference value: 5.14%); format: functional
[13] = tested on: HCT-116; test: Induction of apoptosis in human HCT-116 cells assessed as late apoptotic cells at 10 uM after 24 hrs by Annexin V-FITC/PI staining based flow cytometric analysis (reference value: 5.14%); format: functional
[14] = tested on: HCT-116; test: Induction of cell cycle arrest in human HCT116 cells assessed as cell accumulation at G2/M phase at 3 uM after 24 hrs by Rnase/PI staining based flow cytometric analysis (reference value: 26.4%); format: functional
[15] = tested on: HCT-116; test: Induction of apoptosis in human HCT-116 cells assessed as late apoptotic cells at 1 uM after 24 hrs by Annexin V-FITC/PI staining based flow cytometric analysis (reference value: 5.14%); format: functional
[16] = tested on: HCT-116; test: Induction of apoptosis in human HCT-116 cells assessed as early apoptotic cells at 10 uM after 24 hrs by Annexin V-FITC/PI staining based flow cytometric analysis (reference value: 4.01%); format: functional
[17] = tested on: HCT-116; test: Induction of apoptosis in human HCT-116 cells assessed as early apoptotic cells at 1 uM after 24 hrs by Annexin V-FITC/PI staining based flow cytometric analysis (reference value: 4.01%); format: functional
[18] = tested on: HCT-116; test: Induction of apoptosis in human HCT-116 cells assessed as necrotic cells at 1 uM after 24 hrs by Annexin V-FITC/PI staining based flow cytometric analysis (reference value: 0.51%); format: functional
[19] = tested on: HCT-116; test: Inhibition of HDAC in human HCT-116 cells assessed as up regulation of acetylated tubulin protein expression at 1.25 to 10 uM after 8 hrs by Western blot analysis; format: cell-based; details: dose 1.25-10 µM
[20] = tested on: HCT-116; test: Inhibition of HDAC in human HCT-116 cells assessed as up regulation of acetylated histone H3 protein expression at 1.25 to 10 uM after 8 hrs by Western blot analysis; format: cell-based; details: dose 1.25-10 µM
[21] = tested on: HCT-116; test: Induction of apoptosis in human HCT-116 cells assessed as viable cells at 3 uM after 24 hrs by Annexin V-FITC/PI staining based flow cytometric analysis (reference value: 90.34%); format: functional; details: for viability at 3 µM: Homo sapiens, HCT-116, read-out: Activity
[22] = tested on: HCT-116; test: Induction of apoptosis in human HCT-116 cells assessed as viable cells at 10 uM after 24 hrs by Annexin V-FITC/PI staining based flow cytometric analysis (reference value: 90.34%); format: functional; details: read-out: Activity
[23] = tested on: HCT-116; test: Induction of apoptosis in human HCT-116 cells assessed as early apoptotic cells at 3 uM after 24 hrs by Annexin V-FITC/PI staining based flow cytometric analysis (reference value: 4.01%); format: functional
[24] = tested on: HCT-116; test: Induction of apoptosis in human HCT-116 cells after 24 hrs by Annexin V-FITC/PI staining based flow cytometric analysis; format: functional, cell-based

Histone deacetylase 2, sequence (Q92769 whole entry): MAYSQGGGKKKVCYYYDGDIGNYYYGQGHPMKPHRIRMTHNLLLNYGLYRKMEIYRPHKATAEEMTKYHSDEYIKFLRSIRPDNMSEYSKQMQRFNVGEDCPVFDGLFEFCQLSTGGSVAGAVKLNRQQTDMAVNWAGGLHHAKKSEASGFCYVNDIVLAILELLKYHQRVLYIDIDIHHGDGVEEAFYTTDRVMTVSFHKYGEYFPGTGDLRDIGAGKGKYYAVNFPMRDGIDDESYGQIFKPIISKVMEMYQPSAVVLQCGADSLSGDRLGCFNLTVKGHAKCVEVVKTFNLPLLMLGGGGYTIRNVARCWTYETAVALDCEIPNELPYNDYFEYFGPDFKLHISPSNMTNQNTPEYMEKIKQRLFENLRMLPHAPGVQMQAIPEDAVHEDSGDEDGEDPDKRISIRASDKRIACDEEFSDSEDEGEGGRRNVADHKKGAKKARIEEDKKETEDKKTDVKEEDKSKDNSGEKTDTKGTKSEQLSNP

Row | Structure (SMILES) | IC50 [1] [nM] | IC50 [2] [nM] | IC50 [3] [nM] | IC50 [4] [nM] | IC50 [5] [nM] | IC50 [6] [nM] | other results
1 | COc1ccc(-c2ccc3c(NC(=O)CCCCCCC(=O)NO)n[nH]c3c2)cc1OC | 4.6 | 14600 | 10900 | 3.2 | 21300 | 3.4 | 
2 | COc1ccc(-c2ccc3c(NC(=O)CCCCCCC(=O)NO)n[nH]c3n2)cc1 | 9 | 4100 | 1200 | 7.2 | 4800 | 6 | Activity [7]: 0.24%; Activity [8]: 50%; Activity [9]: 26.1%; viability at 1 µM [10]: 91.8%; Activity [11]: 1.1%; Activity [12]: 7.8%; Activity [13]: 13.34%; Activity [14]: 23.9%; Activity [15]: 5.52%; Activity [16]: 5.75%; Activity [17]: 2.34%; Activity [18]: 0.31%; inhibition [19]: Active; inhibition [20]: Active; viability at 3 µM [21]: 89.1%; viability at 10 µM [22]: 79.8%; Activity [23]: 2.89%
3 | O=C(CCCCCCC(=O)Nc1n[nH]c2cc(-c3ccc(Cl)cc3)ccc12)NO | 3.6 | 3900 | 1000 | 3.3 | 4800 | 3.1 | Activity [7]: 0.86%; Activity [8]: 26.2%; Activity [9]: 29.7%; viability at 1 µM [10]: 40.6%; Activity [11]: 2.47%; Activity [12]: 64.75%; Activity [13]: 61.98%; Activity [14]: 44.1%; Activity [24]: Dose-dependent effect; Activity [15]: 46.29%; Activity [16]: 12.32%; Activity [17]: 8.73%; Activity [18]: 2.41%; inhibition [19]: Active; inhibition [20]: Active; viability at 3 µM [21]: 24%; viability at 10 µM [22]: 23.2%; Activity [23]: 10.36%
4 | COc1cccc(-c2ccc3c(NC(=O)CCCC(=O)NO)n[nH]c3c2)c1 | 168 | > 50000 | 41500 | 54 | > 50000 | 76 | 
5 | O=C(CCCCCCC(=O)Nc1ccccc1)NO [VORINOSTAT] |  | 4900 | 800 |  |  |  | Activity [7]: 2.03%; Activity [8]: 26.2%; Activity [9]: 29.4%; Activity [10]: 77.54%; Activity [11]: 1.37%; Activity [12]: 67.78%; Activity [13]: 67.72%; Activity [14]: 44.2%; Activity [15]: 57.83%; Activity [16]: 14.44%; Activity [17]: 12.87%; Activity [21]: 17.93%; Activity [23]: 12.27%
6 | COc1cccc(-c2ccc3c(NC(=O)CCCCCC(=O)NO)n[nH]c3c2)c1 | 63 | 10600 | 7400 | 4.5 | 20100 | 2.6 | 
7 | O=C(CCCCCCC(=O)Nc1n[nH]c2cc(-c3ccccc3F)ccc12)NO | 4.4 | 4100 | 2500 | 2.4 | 13800 | 1.8 | 
8 | O=C(CCCCCCC(=O)Nc1n[nH]c2cc(-c3ccccc3Cl)ccc12)NO | 5.2 | 2600 | 2200 | 4 | 8100 | 2.7 | 
9 | COc1cccc(-c2ccc3c(NC(=O)CCCCCCC(=O)NO)n[nH]c3c2)c1F | 6 | 7600 | 2000 | 4.4 | 9800 | 3.1 | 
10 | COc1cccc(-c2ccc3c(NC(=O)CCCCCCC(=O)NO)n[nH]c3c2)c1 | 3.9 | 8100 | 19100 | 3 | 3000 | 1.9 | 
11 | COc1cccc(-c2ccc3c(NC(=O)C4CCC(C(=O)NO)CC4)n[nH]c3c2)c1 (stereo not given) | 4630 | 47400 | > 50000 | 3340 | > 50000 | 2420 | 

Reference: ChEMBL document CHEMBL4765277, “Design, synthesis and biological evaluation of novel indazole-based derivatives as potent HDAC inhibitors via fragment-based virtual screening” (Eur J Med Chem, 2020)
